From patent US11889833B2, “Protoporphyrinogen oxidase inhibitors” (Enko Chem, Inc., priority 2022, dated 2024)

Columns and labels:
Type in all cases: in vivo
[1] = test system: Echinochloa crus-galli (ECHCG); assay: Post-emergence herbicidal activity, ECHCG; details: % visual injury compared to treatment control, 7 days after treatment
Experimental: (§1) Selected compounds of the invention were screened at 100 PPM against Amaranthus retroflexus (AMARE), Echinochloa crus-galli (ECHCG), Kochia scoparia (KCHSC), and Setaria italica (SETIT).
(§2) Accordingly, PPO susceptible weed seeds were sown in 5″×5″ pots by quadrant containing Miracle-Gro potting mix (Scotts Miracle-Gro Company, Marysville, OH, USA) and grown in a Conviron growth chamber with appropriate growth conditions (temperature of 26/22° C. with photoperiod 16/8 h light day/night and light intensity of 300 μmol m^−2s^−1 supplemented by LED lamps). Relative humidity in the growth chamber was maintained at around 65%. Plants were grown until 2-4 leaf stage and thinned to 5-8 plants per quadrant per species.
(§3) Compounds were formulated in 25% Acetone, 1% Crop oil concentrate (COC-Agridex), 0.1% Tween-20, and 2.5% Ammonium sulphate (AMS). Three replicate pots were treated with each compound. Treatment consisting of the above formulation excluding active compound was applied as a treatment control (TC). Plants were treated with the test compound solution in a laboratory spray chamber fitted with 8003 flat fan nozzles calibrated to deliver 187-200 L ha^−1 at 269 kPa. Plants were placed back in the growth chamber and evaluated for % visual injury compared to TC 7 days after treatment (DAT). The data presented in Table 3 indicate a percentage control, where 100% control indicates complete inhibition of growth.

[2] = test system: Setaria italica (SETIT); assay: Post-emergence herbicidal activity, SETIT; details: % visual injury compared to treatment control, 7 days after treatment
Experimental: as §1, §2, §3

[3] = test system: Kochia scoparia (KCHSC); assay: Post-emergence herbicidal activity, KCHSC; details: % visual injury compared to treatment control, 7 days after treatment
Experimental: as §1, §2, §3

[4] = test system: Amaranthus retroflexus (AMARE); assay: Post-emergence herbicidal activity, AMARE; details: % visual injury compared to treatment control, 7 days after treatment
Experimental: as §1, §2, §3

[5] = test system: Amaranthus retroflexus (AMARE); assay: Pre-emergence herbicidal activity, AMARE; details: % growth and germination inhibition compared to treatment control, 7 days after treatment
Experimental: Selected compounds of the invention were screened at 200 PPM against Amaranthus retroflexus (AMARE).
Accordingly, PPO susceptible weed seeds were planted in 5″×5″ pots by quadrant containing custom field soil mix (Sandy loam with 4.7% OM, pH 7.0) and covered with a fine layer of the same soil. Compounds were formulated in 25% Acetone, 1% Crop oil concentrate (COC-Agridex), 0.1% Tween-20, and 2.5% Ammonium sulphate (AMS). Three replicate pots were treated with each compound. Treatment consisting of the above formulation excluding active compound was applied as a treatment control (TC). Pots were treated with the test compound solution in a laboratory spray chamber fitted with 8003 flat fan nozzles calibrated to deliver 187-200 L ha-1 at 269 kPa. Compound was incorporated into the soil by simulating rainfall equivalent to 0.2 mm using the same track sprayer. Subsequently, pots were irrigated from the bottom until assessed for % growth and germination inhibition. Pots were placed back in the growth chamber and evaluated for % growth and germination inhibition compared to TC 7 days after treatment (DAT). Growth conditions are similar to the ones mentioned in POST emergence assay.
The data presented in Table 4 indicate a percentage control, where 100% control indicates complete inhibition of growth and germination.

SMILES	Post-emergence (100 ppm) ECHCG, percentage control [1]	Post-emergence (100 ppm) SETIT, percentage control [2]	Post-emergence (100 ppm) KCHSC, percentage control [3]	Post-emergence (100 ppm) AMARE, percentage control [4]	AMARE pre-emergence (200 ppm), percentage control [5]
COC(=O)CCNC(=O)[C@@H](C)Sc1cc(-c2c(F)c(F)c(F)c(F)c2F)c(F)cc1Cl (single isomer, unassigned) [Compound 6]	10%	8%	12%	100%	–
C[C@H](Sc1cc(-c2c(F)c(F)c(F)c(F)c2F)c(F)cc1Cl)C(=O)NCCC(=O)O [Compound 7, (S)-3-(2-((4-chloro-2′,3′,4′,5′,6,6′-hexafluoro-[1,1′-biphenyl]-3-yl)thio)propanamido)propanoic acid]	37%	28%	20%	100%	–
C[C@@H](Sc1cc(-c2c(F)c(F)c(F)c(F)c2F)c(F)cc1Cl)C(=O)NCCC(=O)O [Compound 8, (R)-3-(2-((4-chloro-2′,3′,4′,5′,6,6′-hexafluoro-[1,1′-biphenyl]-3-yl)thio)propanamido)propanoic acid]	28%	23%	23%	100%	–
CN(C)C(=O)NS(=O)(=O)c1cc(-c2c(F)c(F)c(F)c(F)c2F)c(F)cc1Cl [Compound 16, 4-chloro-N-(dimethylcarbamoyl)-2′,3′,4′,5′,6,6′-hexafluoro-[1,1′-biphenyl]-3-sulfonamide]	95%	43%	8%	33%	100%
CC(=O)NS(=O)(=O)c1cc(-c2c(F)c(F)c(F)c(F)c2F)c(F)cc1Cl [Compound 17, N-((4-chloro-2′,3′,4′,5′,6,6′-hexafluoro-[1,1′-biphenyl]-3-yl)sulfonyl)acetamide]	100%	100%	13%	88%	100%
CCC(=O)NS(=O)(=O)c1cc(-c2c(F)c(F)c(F)c(F)c2F)c(F)cc1Cl [Compound 18, N-((4-chloro-2′,3′,4′,5′,6,6′-hexafluoro-[1,1′-biphenyl]-3-yl)sulfonyl)propionamide]	100%	100%	23%	100%	100%
CCC(=O)NS(=O)(=O)c1cc(-c2c(F)cc(F)c(F)c2F)c(F)cc1Cl [Compound 26, N-((4-chloro-2′,3′,4′,6,6′-pentafluoro-[1,1′-biphenyl]-3-yl)sulfonyl)propionamide]	100%	100%	15%	100%	100%
